Consider 35 compounds from patent US12054483B2, “Small molecule inhibitors of DYRK/CLK and uses thereof” (Arizona Board of Regents on Behalf of the University of …, priority 2018, dated 2024).

The assay concerns the target DYRK1A (Homo sapiens, UniProt Q13627). The assay is described as follows: Affinity testing of compounds with DYRK1A (KD). In kind it is binding. The note with it: DYRK1A affinity key classes.
With `Cc1nc2ccc(-c3cnn(C4CC4)c3)nc2n1-c1ccc(N2CCOCC2)c(F)c1` [Compound 147, 4-(4-(5-(1-cyclopropyl-1H-pyrazol-4-yl)-2-methyl-3H-imidazo[4,5-b]pyridin-3-yl)-2-fluorophenyl)morpholine], the Kd – broadly, a measure of binding affinity in units of concentration – is 0.5 to 100 nM. Under `Cc1nc2ccc(-c3ccnc(N)c3)nc2n1-c1ccc(N2CCOCC2)cc1` [Compound 148, 4-(2-methyl-3-(4-morpholinophenyl)-3H-imidazo[4,5-b]pyridin-5-yl)pyridin-2-amine] stands 0.5 to 100 nM.

For the compound `Cc1nc2ccc(-c3ccnc(N)c3)nc2n1-c1ccc(CN2CCOCC2)nc1` [Compound 149, 4-(2-methyl-3-(6-(morpholinomethyl)pyridin-3-yl)-3H-imidazo[4,5-b]pyridin-5-yl)pyridin-2-amine], the Kd was in the range of 501 to 10000 nM. Under `Cc1nc2ccc(-c3ccnc(N)c3)nc2n1-c1ccc2[nH]ccc2c1` [Compound 150, 4-(3-(1H-indol-5-yl)-2-methyl-3H-imidazo[4,5-b]pyridin-5-yl)pyridin-2-amine] stands 0.5 to 100 nM; under `Cc1nc2ccc(-c3ccnc(N)c3)nc2n1-c1ccc(N2CCN(C)CC2)c(F)c1` [Compound 151, 4-(3-(3-fluoro-4-(4-methylpiperazin-1-yl)phenyl)-2-methyl-3H-imidazo[4,5-b]pyridin-5-yl)pyridin-2-amine], 0.5 to 100 nM; under `Cc1nc2ccc(-c3ccnc(N)c3)nc2n1-c1cnc2[nH]ccc2c1` [Compound 152, 4-(2-methyl-3-(1H-pyrrolo[2,3-b]pyridin-5-yl)-3H-imidazo[4,5-b]pyridin-5-yl)pyridin-2-amine], 0.5 to 100 nM. Under `Cc1nc2ccc(-c3ccnc(N)c3)nc2n1-c1cccc(CN2CCOCC2)c1` [Compound 153, 4-(2-methyl-3-(3-(morpholinomethyl)phenyl)-3H-imidazo[4,5-b]pyridin-5-yl)pyridin-2-amine] stands 0.5 to 100 nM. Under `CC(=O)N1CCc2cc(-n3c(C)nc4ccc(-c5ccnc(N)c5)nc43)ccc21` [Compound 154, 1-(5-(5-(2-aminopyridin-4-yl)-2-methyl-3H-imidazo[4,5-b]pyridin-3-yl)indolin-1-yl)ethan-1-one] stands 0.5 to 100 nM; under `Cc1nc2ccc(-c3ccnc(N)c3)nc2n1-c1cccc(CN2C[C@H](C)O[C@@H](C)C2)c1` [Compound 156, 4-(3-(3-(((2S,6S)-2,6-dimethylmorpholino)methyl)phenyl)-2-methyl-3H-imidazo[4,5-b]pyridin-5-yl)pyridin-2-amine], 0.5 to 100 nM.

For `Cc1nc2ccc(-c3ccnc(N)c3)nc2n1-c1cccc(N2CCOCC2)c1` [Compound 157, 4-(2-methyl-3-(3-morpholinophenyl)-3H-imidazo[4,5-b]pyridin-5-yl)pyridin-2-amine], the Kd was 0.5 to 100 nM. Under `Cc1nc2ccc(-c3ccnc(N)c3)nc2n1-c1ccc(N2CCOCC2)nc1` [Compound 158, 4-(2-methyl-3-(6-morpholinopyridin-3-yl)-3H-imidazo[4,5-b]pyridin-5-yl)pyridin-2-amine] stands 0.5 to 100 nM. With `Cc1nc2ccc(-c3ccnc(N)c3)nc2n1-c1ccc(CN2CCCCC2)cc1` [Compound 159, 4-(2-methyl-3-(4-(piperidin-1-ylmethyl)phenyl)-3H-imidazo[4,5-b]pyridin-5-yl)pyridin-2-amine] the figure was 0.5 to 100 nM; with `Cc1nc2ccc(-c3ccnc(N)c3)nc2n1-c1ccc(N2C[C@H]3C[C@H]2CO3)nc1` [Compound 160, 4-(3-(6-((1R,4S)-2-oxa-5-azabicyclo[2.2.1]heptan-5-yl)pyridin-3-yl)-2-methyl-3H-imidazo[4,5-b]pyridin-5-yl)pyridin-2-amine], 0.5 to 100 nM. Take `Cc1nc2ccc(-c3ccnc(N)c3)nc2n1-c1ccc(N2C[C@@H](C)O[C@@H](C)C2)nc1` [Compound 161, 4-(3-(6-((2S,6R)-2,6-dimethylmorpholino)pyridin-3-yl)-2-methyl-3H-imidazo[4,5-b]pyridin-5-yl)pyridin-2-amine]: the Kd fell in the range of 0.5 to 100 nM. `Cc1cc(-n2c(C)nc3ccc(-c4ccnc(N)c4)nc32)cnc1N1CCOCC1` [Compound 162, 4-(2-methyl-3-(5-methyl-6-morpholinopyridin-3-yl)-3H-imidazo[4,5-b]pyridin-5-yl)pyridin-2-amine] had a Kd of 0.5 to 100 nM. With `Cc1nc2ccc(-c3ccnc(N)c3)nc2n1-c1cnc(N2CCOCC2)c(C2CC2)c1` [Compound 163, 4-(3-(5-cyclopropyl-6-morpholinopyridin-3-yl)-2-methyl-3H-imidazo[4,5-b]pyridin-5-yl)pyridin-2-amine] the figure was 0.5 to 100 nM. Under `Cc1nc2ccc(-c3ccnc(N)c3)nc2n1-c1ccnc(N2CCOCC2)c1` [Compound 164, 4-(2-methyl-3-(2-morpholinopyridin-4-yl)-3H-imidazo[4,5-b]pyridin-5-yl)pyridin-2-amine] stands 0.5 to 100 nM; under `Cc1nc2ccc(-c3ccnc(N)c3)nc2n1-c1cnc(N2CCOCC2)c(Cl)c1` [Compound 166, 4-(3-(5-chloro-6-morpholinopyridin-3-yl)-2-methyl-3H-imidazo[4,5-b]pyridin-5-yl)pyridin-2-amine], 0.5 to 100 nM; under `Cc1nc2ccc(-c3ccnc(N)c3)nc2n1-c1ccc(N2CC3CCC(C2)O3)c(F)c1` [Compound 167, 4-(3-(4-(8-oxa-3-azabicyclo[3.2.1]octan-3-yl)-3-fluorophenyl)-2-methyl-3H-imidazo[4,5-b]pyridin-5-yl)pyridin-2-amine], 0.5 to 100 nM.

`Cc1nc2ccc(-c3ccnc(N)c3)nc2n1-c1ccc(N2CCOCC2)c(Cl)c1` [Compound 168, 4-(3-(3-chloro-4-morpholinophenyl)-2-methyl-3H-imidazo[4,5-b]pyridin-5-yl)pyridin-2-amine] displayed a dissociation constant (Kd) of 0.5 to 100 nM. `Cc1nc2ccc(-c3ccnc(N)c3)nc2n1-c1ccc(N2CCC3(COC3)C2)c(F)c1` [Compound 169, 4-(3-(3-fluoro-4-(2-oxa-6-azaspiro[3.4]octan-6-yl)phenyl)-2-methyl-3H-imidazo[4,5-b]pyridin-5-yl)pyridin-2-amine] registered a Kd of 0.5 to 100 nM. With `Cc1nc2ccc(-c3ccnc(N)c3)nc2n1-c1ccc(N2CCOC[C@H]2C)c(F)c1` [Compound 170, (R)-4-(3-(3-fluoro-4-(3-methylmorpholino)phenyl)-2-methyl-3H-imidazo[4,5-b]pyridin-5-yl)pyridin-2-amine], the Kd is 0.5 to 100 nM. With `Cc1nc2ccc(-c3ccnc(N)c3)nc2n1-c1ccc(N2CCOC[C@@H]2C)c(F)c1` [Compound 171, (S)-4-(3-(3-fluoro-4-(3-methylmorpholino)phenyl)-2-methyl-3H-imidazo[4,5-b]pyridin-5-yl)pyridin-2-amine] the figure was 0.5 to 100 nM; with `Cc1nc2ccc(-c3ccnc(N)c3)nc2n1-c1cc(F)c(N2CCOCC2)c(F)c1` [Compound 172, 4-(3-(3,5-difluoro-4-morpholinophenyl)-2-methyl-3H-imidazo[4,5-b]pyridin-5-yl)pyridin-2-amine], 0.5 to 100 nM.

The compound `Cc1nc2ccc(-c3ccnc(N)c3)nc2n1-c1ccc(F)c(N2CCOCC2)c1` [Compound 173, 4-(3-(4-fluoro-3-morpholinophenyl)-2-methyl-3H-imidazo[4,5-b]pyridin-5-yl)pyridin-2-amine] had a Kd of 0.5 to 100 nM. With `Cc1nc2ccc(-c3ccnc(N)c3)nc2n1-c1ccc2c(c1)CCN2C1CCOCC1` [Compound 174, 4-(2-methyl-3-(1-(tetrahydro-2H-pyran-4-yl)indolin-5-yl)-3H-imidazo[4,5-b]pyridin-5-yl)pyridin-2-amine] the figure was 0.5 to 100 nM; with `Cc1nc2ccc(-c3ccnc(Cl)c3)nc2n1-c1ccc(CN2CCOCC2)cc1` [Compound 176, 4-(4-(5-(2-chloropyridin-4-yl)-2-methyl-3H-imidazo[4,5-b]pyridin-3-yl)benzyl)morpholine], 0.5 to 100 nM.

In turn, `Cc1nc2cccnc2n1-c1ccc(CN2CCOCC2)cc1` [Compound 177, 4-(4-(2-methyl-3H-imidazo[4,5-b]pyridin-3-yl)benzyl)morpholine] came in with a Kd of 501 to 10000 nM. With `Cc1nc2ccc(-c3ccnc4[nH]ccc34)nc2n1-c1cccc(CN2CCOCC2)c1` [Compound 178, 4-(3-(2-methyl-5-(1H-pyrrolo[2,3-b]pyridin-4-yl)-3H-imidazo[4,5-b]pyridin-3-yl)benzyl)morpholine], the Kd is 0.5 to 100 nM. As to `Cc1nc2ccc(-c3ccnc4[nH]ccc34)nc2n1-c1ccc(CN2CCOCC2)cc1` [Compound 179, 4-(4-(2-methyl-5-(1H-pyrrolo[2,3-b]pyridin-4-yl)-3H-imidazo[4,5-b]pyridin-3-yl)benzyl)morpholine], the Kd lay in the range of 0.5 to 100 nM. Compound `Cc1nc2cnc(-c3ccnc(N)c3)cc2n1-c1cccc(CN2CCOCC2)c1` [Compound 180, 4-(2-methyl-1-(3-(morpholinomethyl)phenyl)-1H-imidazo[4,5-c]pyridin-6-yl)pyridin-2-amine] yielded a Kd of 101 to 500 nM.

As to `Cc1nc2ccc(-c3ccnc(N)c3)nc2n1-c1ccc(N2C[C@@H](C)O[C@@H](C)C2)c(F)c1` [Compound 181, 4-(3-(4-((2S,6R)-2,6-dimethylmorpholino)-3-fluorophenyl)-2-methyl-3H-imidazo[4,5-b]pyridin-5-yl)pyridin-2-amine], the Kd lay within 0.5 to 100 nM. `Cc1nc2ccc(-c3ccnc(N)c3)nc2n1-c1ccc(N2CCS(=O)(=O)CC2)c(F)c1` [Compound 182, 4-(4-(5-(2-aminopyridin-4-yl)-2-methyl-3H-imidazo[4,5-b]pyridin-3-yl)-2-fluorophenyl)thiomorpholine 1,1-dioxide] gave a Kd of 0.5 to 100 nM. With `Cc1nc2ccc(-c3ccnc(N)c3)nc2n1-c1ccc(N2C[C@H](C)O[C@@H](C)C2)c(F)c1` [Compound 183, 4-(3-(4-((2S,6S)-2,6-dimethylmorpholino)-3-fluorophenyl)-2-methyl-3H-imidazo[4,5-b]pyridin-5-yl)pyridin-2-amine] the figure was 0.5 to 100 nM; with `CC(=O)N1CCN(c2ccc(-n3c(C)nc4ccc(-c5ccnc(N)c5)nc43)cc2F)CC1` [Compound 184], 0.5 to 100 nM.
